Legend:
[1] = tested on: skin fibroblasts of Patient 2; assay: N- and O-linked glycan analysis by MALDI-TOF mass spectroscopy; assay type: cell-based, human
Experimental: Fibroblasts from Patient 2 were used for N- and O-linked glycan analysis with and without D-gal feeding in vitro. Upon reaching 100% confluence, the cells were washed twice with PBS and harvested using a cell scraper. The cells were then pelleted and washed with PBS by centrifugation. Fibroblast pellets were lysed in 200 μL PBS, and 200 μg protein from the cell lysate was denatured and precipitated with ˜2 Å volume of 100% propanol. N-linked and O-linked glycans were released from precipitated protein, and free oligosaccharides were purified from the supernatant. N-linked glycans were released from the cell pellets using the PNGase F kit from New England Biolabs (Ipswich, Mass., USA). O-linked glycans were released using β-elimination with sodium borohydride. The released N-linked glycans from cells or deprotonated total cell lysate were purified and desalted by solid phase extraction using a SepPak C18 and carbograph column. O-linked glycans from cells were purified and desalted using an AG 50W-X8 resin cation exchange column. N-linked glycans, O-linked glycans and oligosaccharides were permethylated with sodium hydroxide and iodomethane in dimethyl sulfoxide (DMSO). After permethylation, glycans were extracted with water/chloroform (2:1, vol/vol) in four steps and dried. Samples were then dissolved in 50% methanol, spotted with 11% 2,5-dihydroxylbenzoic acid matrix (1:1 vol/vol), and measured in triplicates and compared to two healthy controls. Measurements were performed by MALDI-TOF using the positive mode on Ultraflex MALDI-TOF/TOF system (BrunkerDaltonics, Billerica, Mass., USA) as described elsewhere (see, e.g., Xia et al., 2013 Anal Biochem 442:178-185).

[2] = tested on: serum transferrin; assay: Glycomics / high-resolution mass spectrometry of intact serum transferrin at T0 and T3; assay type: in vivo, human; settings: for Ratio A-Glyco / DiGlyco transferrin / Ratio Mono-Glyco / DiGlyco transferrin / Ratio Trisialo-Glyco / DiGlyco transferrin: T = 3; for Ratio A-Glyco / DiGlyco transferrin: control range <=0.01040; for Ratio Mono-Glyco / DiGlyco transferrin: control range <=0.02700; for Ratio Trisialo-Glyco / DiGlyco transferrin: control range <=0.031900
Experimental: Liver transaminases (aspartate transaminase (AST) and alanine transaminase (ALT)), creatine kinase (CK), commonly assayed glycoproteins (thyroid stimulating hormone (TSH), thyroxine-binding globulin (TBG), and insulin-like growth factor binding protein 3 (IGF3BP)), and coagulation parameters (Factor IX, Factor XI, activated […] (aPTT), and anti-thrombin III (ATIII)), were measured in blood. Patent 1 had additional Factor XI, and XIII measurements. Serum galactose-1-phosphate and urine galactitol were measured to monitor safety and tolerability of galactose supplementation. Biochemical studies to evaluate changes in glycosylation included isoelectric focusing (IEF) of serum transferrin and glycomic analysis in blood by mass spectrometry.
Plasma (sodium heparin) or serum was used for glycomics analysis according to the procedure as described elsewhere (see, e.g., van Scherpenzeel et al., 2015 Transl Res 166:639-649.e1). Briefly, a 10 μl serum sample was purified using anti-transferrin beads. The eluate was analyzed on a microfluidic 6540 LC-chip-QTOF instrument (Agilent Technologies) using a C8 protein chip. Data analysis was performed using Agilent Mass Hunter Qualitative Analysis Software B.05.00.
The most abundant peaks in the transferrin mass spectrometry profiles were annotated, and ratios were calculated for the nonglycosylated (A-Glyco), monoglycosylated (Mono-Glyco), and trisialo- (Trisialo-Glyco) transferrin over the normal transferrin peak (tetrasialo; Di-Glyco). Ratios were compared in patient samples before D-gal supplementation and 18 weeks after starting oral supplements according to protocol. An example is shown in FIG. 5 for a severely (patient 2) and a mildly (patient 9) abnormal profile. A-Glyco- and Mono-Glyco ratios were abnormal in all patients. […] The most pronounced improvement was measured in patient 4. In patients 3 and 8, the A-Glyco peak normalized (Table 3, FIG. 6).

[3] = Blood concentration of D-gal after oral dose; assay type: in vivo, human; settings: PGM1-CDG patients; 1-1.5 g/kg/day oral
Experimental: An oral dose of 0.3 g/kg D-gal supplement leads to a blood concentration of D-gal at 0.75 mM, 1.0 g/kg D-gal dose corresponds to 2.25 mM peak concentration of D-gal in blood, while an oral dose of 1.5 g/kg galactose supplement leads to a blood peak concentration of 3.5 mM (Tegtmeyer et al. 2014). The blood concentration of free D-galactose in un-supplemented individuals was below 0.01 mM.

[4] = tested on: PGM1 deficient cell lines; assay: Lipid-linked and protein-linked oligosaccharide analysis
[5] = 4 days of 0.75 mM galactose following 18 hours of serum starvation

With `O=C[C@H](O)[C@@H](O)[C@@H](O)[C@H](O)CO` [D-gal, D-galactose] the “N-glycan m/z 2070.06 Hexose5HexNAc4, Level” value [1, 5] was “Normal”, the “N-glycan m/z 2431 Sial1Hexose5HexNAc4, Level” value [1, 5] was “Normal” and the “N-glycan m/z 2605 + 2431 monosialo biantennary glycans, Level” value [1, 5] was “High”. For the same compound, the “N-glycan m/z 2605 Fuc1Sial1Hexose5HexNAc4, Level” value [1, 5] was “High”, the “O-glycan m/z 1256 core1, disialyl T, Level” value [1, 5] was “Low” and the “O-glycan m/z 1706 core2, disalyl, sial2hexose2hexNAc2, Level” value [1, 5] was “High”. For the same compound, the “O-glycan m/z 1706 core2, disalyl, sial2hexose2hexNAc2, % Total glycan” value ([1]; 4 days of 0.75 mM galactose following 18 hours of serum starvation, control range 14%) was 35.12%, the “O-glycan m/z 1256 core1, disialyl T, % Total glycan” value ([1]; 4 days of 0.75 mM galactose following 18 hours of serum starvation, control range 55.12%) was 11.22% and the “N-glycan m/z 2070.06 Hexose5HexNAc4, % Total glycan” value ([1]; 4 days of 0.75 mM galactose following 18 hours of serum starvation, control range <3.88%) was 3.65%. The “N-glycan m/z 2431 Sial1Hexose5HexNAc4, % Total glycan” value ([1]; 4 days of 0.75 mM galactose following 18 hours of serum starvation, control range <3.90%) was 2.23%, the “N-glycan m/z 2605 Fuc1Sial1Hexose5HexNAc4, % Total glycan” value ([1]; 4 days of 0.75 mM galactose following 18 hours of serum starvation, control range <4.46%) was 6.15% and the “N-glycan m/z 2605 + 2431 monosialo biantennary glycans, % Total glycan” value ([1]; 4 days of 0.75 mM galactose following 18 hours of serum starvation, control range <8.36%) was 8.38%. For the same compound, the “Monosialo core 1 at m/z 895” value ([1]; both in control and PGM1-CDG cells) was “increased”, the “Sialylation of N-glycans” value ([1]; in vitro galactose treatment of fibroblasts) was “improved sialylation” and the “GlcNAcylation in N-linked or O-linked protein glycosylation profiles” value ([1]; patient 2 fibroblasts after serum starvation) was “No change”. For the same compound, the Transferrin glycosylation ([2]; 8 patients, type 2 pattern shifting to mild type 1 pattern) was “Clear improvement”, the “Ratio A-Glyco / DiGlyco transferrin” value ([2]; Patient 1) was 0.042 and the “Ratio Mono-Glyco / DiGlyco transferrin” value ([2]; Patient 1) was 0.198. For the same compound, the “Ratio Trisialo-Glyco / DiGlyco transferrin” value ([2]; Patient 1) was 0.0778, the “Ratio A-Glyco / DiGlyco transferrin” value ([2]; Patient 2) was 0.046 and the “Ratio Mono-Glyco / DiGlyco transferrin” value ([2]; Patient 2) was 0.213. For the same compound, the “Ratio Trisialo-Glyco / DiGlyco transferrin” value ([2]; Patient 2) was 0.0542, the “Ratio A-Glyco / DiGlyco transferrin” value ([2]; Patient 3) was 0.002 and the “Ratio Mono-Glyco / DiGlyco transferrin” value ([2]; Patient 3) was 0.071. For the same compound, the “Ratio Trisialo-Glyco / DiGlyco transferrin” value ([2]; Patient 3) was 0.0549, the “Ratio A-Glyco / DiGlyco transferrin” value ([2]; Patient 4) was 0.314 and the “Ratio Mono-Glyco / DiGlyco transferrin” value ([2]; Patient 4) was 0.632. The “Ratio Trisialo-Glyco / DiGlyco transferrin” value ([2]; Patient 4) was 0.0938, the “Ratio A-Glyco / DiGlyco transferrin” value ([2]; Patient 5) was 0.021 and the “Ratio Mono-Glyco / DiGlyco transferrin” value ([2]; Patient 5) was 0.142. For the same compound, the “Ratio Trisialo-Glyco / DiGlyco transferrin” value ([2]; Patient 5) was 0.0740, the “Ratio A-Glyco / DiGlyco transferrin” value ([2]; Patient 6) was 0.044 and the “Ratio Mono-Glyco / DiGlyco transferrin” value ([2]; Patient 6) was 0.293. The “Ratio Trisialo-Glyco / DiGlyco transferrin” value ([2]; Patient 6) was 0.0639, the “Ratio A-Glyco / DiGlyco transferrin” value ([2]; Patient 7) was 0.108 and the “Ratio Mono-Glyco / DiGlyco transferrin” value ([2]; Patient 7) was 0.356. The “Ratio Trisialo-Glyco / DiGlyco transferrin” value ([2]; Patient 7) was 0.0551, the “Ratio A-Glyco / DiGlyco transferrin” value ([2]; Patient 8 (non-compliant)) was 0.003 and the “Ratio Mono-Glyco / DiGlyco transferrin” value ([2]; Patient 8 (non-compliant)) was 0.081. For the same compound, the “Ratio Trisialo-Glyco / DiGlyco transferrin” value ([2]; Patient 8 (non-compliant)) was 0.0712, the “Ratio A-Glyco / DiGlyco transferrin” value ([2]; Patient 9) was 0.019 and the “Ratio Mono-Glyco / DiGlyco transferrin” value ([2]; Patient 9) was 0.127. The “Ratio Trisialo-Glyco / DiGlyco transferrin” value ([2]; Patient 9) was 0.0561, the Transferrin glycosylation pattern ([2]; T3) was “None of the patients showed a normalized pattern” and the Transferrin glycosylation ([2]; patient 5) was “no change was observed”. The A-glyco fraction ([2]; patients 3 and 8, 18 weeks) was “completely normalized”, the “Peak concentration of galactose in blood” value [3] was 0.75 to 2 mM and the PLO profile ([4]; all four patient cell lines) was “In none of the patients galactose supplementation had an effect”. The “Shortened LLO (Man9GlcNAc2-PP-dolichol)” value ([4]; patient 8) was “No improvement” and the “Shortened LLO (Man9GlcNAc2-PP-dolichol)” value ([4]; patients 1, 2, cell-line 2013Y, 10 mM D-gal, LLO profile similar to control) was “reduction of shortened LLO”.

— patent publication US20220241311A1, “METHODS AND MATERIALS FOR TREATING GLYCOSYLATION DISORDERS” (priority 2018, published 2022)
